Paper PMC5270475, “Structural Characterization and Ligand/Inhibitor Identification Provide Functional Insights into the Mycobacterium tuberculosis Cytochrome P450 CYP126A1” (The Journal of Biological Chemistry, 2016)

These molecules were tested against T1, CYP126A1 (Mycobacterium tuberculosis, UniProt P9WPN9) (assay: UV-visible absorbance titration (heme Soret shift)).
T1 construct: gene cyp126
Type: binding

T1 sequence (P9WPN9 whole entry): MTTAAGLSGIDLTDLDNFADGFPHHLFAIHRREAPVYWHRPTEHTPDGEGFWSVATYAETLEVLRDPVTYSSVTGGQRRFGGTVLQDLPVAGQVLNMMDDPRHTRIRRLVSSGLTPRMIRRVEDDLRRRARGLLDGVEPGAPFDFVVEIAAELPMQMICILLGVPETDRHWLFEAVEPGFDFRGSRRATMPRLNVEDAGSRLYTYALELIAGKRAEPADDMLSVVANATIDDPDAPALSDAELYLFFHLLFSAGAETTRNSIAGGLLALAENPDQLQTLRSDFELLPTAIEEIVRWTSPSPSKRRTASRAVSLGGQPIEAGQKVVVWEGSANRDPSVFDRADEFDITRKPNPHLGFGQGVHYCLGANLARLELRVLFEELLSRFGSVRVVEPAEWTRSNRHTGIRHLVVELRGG

| SMILES | Kd [µM] |
| --- | --- |
| CC(=O)N1CCN(c2ccc(OC[C@H]3CO[C@](Cn4ccnc4)(c4ccc(Cl)cc4Cl)O3)cc2)CC1 (racemic) [Ketoconazole] | 0.34 ± 0.07 |
| Clc1ccccc1C(c1ccccc1)(c1ccccc1)n1ccnc1 [Clotrimazole] | 3.9 ± 0.4 |
| Clc1ccc(COC(Cn2ccnc2)c2ccc(Cl)cc2Cl)cc1 (centres unmarked) [Econazole] | 4 ± 0.6 |
| c1c[nH]cn1 [Imidazole] | 2590 ± 60 |
| Clc1ccc(COC(Cn2ccnc2)c2ccc(Cl)cc2Cl)c(Cl)c1 (centres unmarked) [Miconazole] | 1.3 ± 0.2 |
| O=C(NCCCn1ccnc1)NC12CC3CC(CC(C3)C1)C2 [compound 7, Compound 7] | 4.13 ± 0.61 |
| Cn1c(-c2ccc(-c3nc4ccccc4[nH]3)cc2)nc2cc(N)ccc21 [compound 8, Compound 8] | 11 ± 0.6 |
| O=C(O)C1CSC(c2cc3ccccc3nc2Cl)N1 (centres unmarked) [compound 9, Compound 9] | 16.4 ± 0.7 |
